Test results taken from US20030199671A1, “Binding molecules for Fc-region polypeptides” (priority 2001, published 2003).
Positions of bridges follow the written chain, without caps; N, C: chain ends. Residues, ends and D or L forms follow the SMILES beside them.

Tests used:
Assay type in all cases: binding
mouse IgG = tested on: mouse IgG
In short: (§1)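 Static binding, peptide resin + IgG, 1-1.5 h RT with shaking, PBST pH 7.2 or TBST pH 7.5. Flow-through read at A280 vs buffer blank; % bound = control minus unbound. Elution at pH 8.5 bicarbonate and/or pH 4.0 citrate, 30-60 min.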

goat IgG = tested on: goat IgG
In short: as §1

human IgG1 = target: T1, human IgG1 (Homo sapiens, UniProt P01857)
T1 construct: all human subtypes derived from myeloma patients; purchased Calbiochem 400120; host or cells: myeloma patients
T1 sequence (P01857 1-330 isoform P01857-1): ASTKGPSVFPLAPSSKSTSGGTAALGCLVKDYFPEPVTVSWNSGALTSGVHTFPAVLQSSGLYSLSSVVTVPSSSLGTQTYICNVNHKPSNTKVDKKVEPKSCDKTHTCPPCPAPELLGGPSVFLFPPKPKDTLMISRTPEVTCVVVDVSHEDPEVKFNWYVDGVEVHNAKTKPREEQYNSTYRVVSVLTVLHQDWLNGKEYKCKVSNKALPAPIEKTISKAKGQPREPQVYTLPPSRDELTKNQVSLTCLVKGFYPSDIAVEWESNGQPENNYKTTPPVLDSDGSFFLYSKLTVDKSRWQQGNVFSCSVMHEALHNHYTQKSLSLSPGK
In short: (§2)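 Steps: dilute IgG in PBST or TBST; incubate with immobilized peptide 1-1.5 h, RT; collect unbound by centrifugation; measure A280; wash three times; elute with 0.1 M sodium bicarbonate pH 8.5 and/or 0.1 M sodium citrate pH 4.0 for 30-60 min and quantitate.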

bovine IgG = tested on: bovine IgG
In short: as §1

human IgG2 = target: T2, human IgG2 (Homo sapiens, UniProt P01859)
T2 construct: all human subtypes derived from myeloma patients; purchased Calbiochem 400122; host or cells: myeloma patients
T2 sequence (P01859 1-326 isoform P01859-1): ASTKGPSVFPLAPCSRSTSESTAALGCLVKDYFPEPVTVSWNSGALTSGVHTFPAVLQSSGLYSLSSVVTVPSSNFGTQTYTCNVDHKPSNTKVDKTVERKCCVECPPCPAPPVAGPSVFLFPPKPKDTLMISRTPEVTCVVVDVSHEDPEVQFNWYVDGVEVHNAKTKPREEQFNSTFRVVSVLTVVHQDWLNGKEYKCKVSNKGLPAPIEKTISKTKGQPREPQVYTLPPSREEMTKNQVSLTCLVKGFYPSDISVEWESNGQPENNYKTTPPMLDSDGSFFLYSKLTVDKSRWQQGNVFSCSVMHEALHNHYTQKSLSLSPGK
In short: (§3)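 Read-out is A280 of unbound IgG (1.4 mg/ml extinction coefficient), with percent bound derived against non-filtered or negative controls. Targets were incubated with immobilized peptides in PBST or TBST for 1-1.5 h at room temperature. Hydrolyzed Sepharose and immobilized Protein A serve as negative and positive controls.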

human IgG = tested on: human IgG
In short: as §1

IgG3 = IgG3 (Homo sapiens, UniProt P01860); design: all human subtypes derived from myeloma patients; purchased Calbiochem 400124; host or cells: myeloma patients
Chain of IgG3 (P01860 1-377 isoform P01860-1): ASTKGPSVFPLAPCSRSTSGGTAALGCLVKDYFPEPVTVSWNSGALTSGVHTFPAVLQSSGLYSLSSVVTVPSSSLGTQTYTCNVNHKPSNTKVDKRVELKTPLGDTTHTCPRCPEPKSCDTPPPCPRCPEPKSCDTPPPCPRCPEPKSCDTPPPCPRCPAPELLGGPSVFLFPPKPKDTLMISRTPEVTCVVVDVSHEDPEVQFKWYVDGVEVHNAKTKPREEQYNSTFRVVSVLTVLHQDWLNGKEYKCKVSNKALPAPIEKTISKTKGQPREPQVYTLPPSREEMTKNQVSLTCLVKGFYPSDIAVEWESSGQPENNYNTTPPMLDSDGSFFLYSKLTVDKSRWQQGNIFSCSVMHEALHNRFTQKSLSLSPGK
In short: as §2

IgG4 = IgG4 (Homo sapiens, UniProt P01861); design: all human subtypes derived from myeloma patients; purchased Calbiochem 400126; host or cells: myeloma patients
Chain of IgG4 (P01861 1-327 isoform P01861-1): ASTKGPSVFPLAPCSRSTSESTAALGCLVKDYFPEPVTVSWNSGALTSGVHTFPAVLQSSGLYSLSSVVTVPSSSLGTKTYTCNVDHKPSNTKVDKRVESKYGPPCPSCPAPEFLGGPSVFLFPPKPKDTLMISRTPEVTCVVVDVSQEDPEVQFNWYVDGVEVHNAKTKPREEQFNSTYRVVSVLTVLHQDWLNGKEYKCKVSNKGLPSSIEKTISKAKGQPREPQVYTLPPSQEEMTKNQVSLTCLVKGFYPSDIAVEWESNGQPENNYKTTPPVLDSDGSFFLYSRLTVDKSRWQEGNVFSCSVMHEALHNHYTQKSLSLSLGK
In short: as §3

[1] = Table 9, immobilized peptide, 5.0 mg/ml resin load
[2] = Table 10, elution 0.1 M sodium bicarbonate buffer, pH 8.5
[3] = Table 10, elution 0.1 M sodium citrate buffer, pH 4.0

## CC[C@H](C)[C@@H]1NC(=O)[C@H](CC(C)C)NC(=O)[C@H](CCC(=O)O)NC(=O)CNC(=O)[C@H](Cc2c[nH]c3ccccc23)NC(=O)[C@H]([C@@H](C)O)NC(=O)[C@H]([C@@H](C)O)NC(=O)[C@H](Cc2ccc(O)cc2)NC(=O)[C@H](C(C)C)NC(=O)[C@@H](NC(=O)[C@H](CCSC)NC(=O)[C@H](Cc2c[nH]cn2)NC(=O)[C@H](CC(=O)O)NC(=O)[C@H](CC(=O)O)NC(=O)CNC(C)=O)CSSC[C@@H](C(=O)N[C@@H](CC(=O)O)C(=O)N[C@@H](CC(N)=O)C(=O)N[C@@H](Cc2c[nH]cn2)C(=O)N[C@@H](CCC(=O)O)C(=O)N2CCC[C@H]2C(=O)NCC(=O)N2CCC[C@H]2C(=O)N[C@@H](CCC(=O)O)C(=O)NCC(=O)NCC(=O)NCC(=O)N[C@@H](CCCCN)C(N)=O)NC(=O)[C@H](Cc2c[nH]c3ccccc23)NC1=O [DX249] (Ac-GDDHMCVYTTWGELIWCDNHEPGPEGGGK-NH2; disulfide 6-17)
Mouse IgG
  % IgG Capture - Batch Binding, Mouse IgG: 0%
Goat IgG
  % IgG Capture - Batch Binding, Goat IgG: 0%
Human IgG1; [1]
  % IgG Capture - Batch Binding, Human IgG1: 91%
Human IgG1; Table 10, batch binding
  Human IgG1 bdg % (% of Total Load): 91%
Human IgG1; [2]
  Human IgG1 elu pH 8.5 (% of Total Load): 63%
Human IgG1; [3]
  Human IgG1 elu pH 4.0 (% of Total Load): 51%
Human IgG1; Table 13
  hIgG1 elution pH 2.5 (% of Total Load): 65%
  hIgG1 elution pH 3.0 (% of Total Load): 69%
  hIgG1 elution pH 3.5 (% of Total Load): 69%
  hIgG1 elution pH 4.5 (% of Total Load): 37%
  hIgG1 elution pH 5.5 (% of Total Load): 1%
  hIgG1 elution pH 9.0 (% of Total Load): 65%
  hIgG1 elution pH 9.5 (% of Total Load): 68%
Bovine IgG
  % IgG Capture - Batch Binding, Bovine IgG: 0%
Human IgG2; [1]
  % IgG Capture - Batch Binding, Human IgG2: 92%
Human IgG2; Table 10, batch binding
  Human IgG2 bdg % (% of Total Load): 92%
Human IgG2; [2]
  Human IgG2 elu pH 8.5 (% of Total Load): 54%
Human IgG2; [3]
  Human IgG2 elu pH 4.0 (% of Total Load): 63%
Human IgG2; Table 13
  hIgG2 elution pH 2.5 (% of Total Load): 71%
  hIgG2 elution pH 3.0 (% of Total Load): 73%
  hIgG2 elution pH 3.5 (% of Total Load): 63%
  hIgG2 elution pH 4.5 (% of Total Load): 39%
  hIgG2 elution pH 5.5 (% of Total Load): 1%
  hIgG2 elution pH 9.0 (% of Total Load): 60%
  hIgG2 elution pH 9.5 (% of Total Load): 67%
Human IgG
  % IgG Capture - Batch Binding, Human IgG: 84%
IgG3; [1]
  % IgG Capture - Batch Binding, Human IgG3: 0%
IgG3; Table 10, batch binding
  Human IgG3 bdg % (% of Total Load): 3%
IgG3; [2]
  Human IgG3 elu pH 8.5 (% of Total Load): 0%
IgG3; [3]
  Human IgG3 elu pH 4.0 (% of Total Load): 0%
IgG3; Table 13
  hIgG3 elution pH 2.5 (% of Total Load): 0%
  hIgG3 elution pH 3.0 (% of Total Load): 0%
  hIgG3 elution pH 3.5 (% of Total Load): 0%
  hIgG3 elution pH 4.5 (% of Total Load): 0%
  hIgG3 elution pH 5.5 (% of Total Load): 0%
  hIgG3 elution pH 9.0 (% of Total Load): 0%
  hIgG3 elution pH 9.5 (% of Total Load): 0%
IgG4; [1]
  % IgG Capture - Batch Binding, Human IgG4: 82%
IgG4; Table 10, batch binding
  Human IgG4 bdg % (% of Total Load): 82%
IgG4; [2]
  Human IgG4 elu pH 8.5 (% of Total Load): 66%
IgG4; [3]
  Human IgG4 elu pH 4.0 (% of Total Load): 54%
IgG4; Table 13
  hIgG4 elution pH 2.5 (% of Total Load): 42%
  hIgG4 elution pH 3.0 (% of Total Load): 43%
  hIgG4 elution pH 3.5 (% of Total Load): 30%
  hIgG4 elution pH 4.5 (% of Total Load): 10%
  hIgG4 elution pH 5.5 (% of Total Load): 4%
  hIgG4 elution pH 9.0 (% of Total Load): 53%
  hIgG4 elution pH 9.5 (% of Total Load): 59%
